Assay results published in US7109197B2, “N-phenyl-4-(4-pyridyl)-2-pyrimidineamine derivatives” (Syngenta Crop Protection, Inc., priority 2000, dated 2006).
Like-named read-outs stand apart in the source and are kept apart here.

Columns and labels:
[1] = system: Erysiphe graminis; test: Assay B-6: Effect against Erysiphe graminis on barley (powdery mildew); residual protective / systemic activity; assay type: in vivo; settings: 0.02% active substance spray (residual) or 0.002% soil (systemic), variant not stated
Experimental: Assay B-6: Effect Against Erysiphe graminis on Barley (Powdery Mildew on Barley) a) Residual Protective Activity […] The infected plants are placed in a greenhouse at 22°. 12 days after infection, the fungal attack is evaluated. b) Systemic Activity […] […] 48 hours later, the plants are dusted with conidia of the fungus. The infected plants are placed in a greenhouse at 22° C. 12 days after infection, the disease incidence is evaluated.

[2] = system: Fusarium culmorum; assay type: in vivo
[3] = system: Botrytis cinerea; test: Assay B-8: Effect against Botrytis cinerea/tomato (Botrytis on tomatoes); assay type: in vivo; settings: Botrytis cinerea on tomato cv. Roter Gnom; 0.02% active substance, spray
Experimental: Assay B-8: Effect Against Botrytis cinerea/Tomato (Botrytis on Tomatoes) 4 week old tomato plants cv. Roter Gnom are treated with the formulated testcompound 0.02% active substance) in a spray chamber. Two days after application tomato plants are inoculated by spraying a spore suspension (1×10^5 conidia/ml) on the test plants. After an incubation period of 4 days at 20° C. and 95% r. h. in a greenhouse the disease incidence is assessed.

[4] = system: Septoria nodorum; test: Assay B-12: Effect against Septoria nodorum/wheat (Septoria leaf spot on wheat); assay type: in vivo; settings: Septoria nodorum on wheat cv. Arina, 0.02% active substance, spray
[5] = system: Pyricularia oryzae; assay type: in vivo; settings: Pyricularia oryzae on rice cv. Sasanishiki; 0.02% active substance, spray
[6] = system: Botrytis cinerea; test: Assay B-7: Botrytis cinerea/grape (Botrytis on grapes); assay type: in vivo; settings: Botrytis cinerea on grape seedlings cv. Gutedel; 0.02% active substance, spray
Experimental: Assay B-7: Botrytis cinerea/Grape (Botrytis on Grapes) 5 week old grape seedlings cv. Gutedel are treated with the formulated testcompound (0.02% active substance) in a spray chamber. Two days after application grape plants are inoculated by spraying a spore suspension (1×10^6 conidia/ml) on the test plants. After an incubation period of 4 days at 21° C. and 95% r. h. in a greenhouse the disease incidence is assessed.

[7] = system: Pyrenophora teres (Helminthosporium); test: Assay B-10: Effect against Pyrenophora teres (Helminthosporium)/barley (net blotch on barley); assay type: in vivo; settings: Pyrenophora teres on barley cv. Regina, 0.02% active substance, spray
In short: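 One-week-old barley cv. Regina sprayed with formulated compound at 0.02% active substance, then inoculated 2 days later with 3×10^4 conidia/ml. Held 2 days at 20° C/95% r.h., then 2 days at 20° C/60% r.h.; disease incidence scored 4 days after inoculation.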

[8] = system: Venturia inaegualis; test: Assay B-5: Residual protective activity against Venturia inaegualis on apples (scab on apple); assay type: in vivo; settings: Venturia inaegualis on apple seedlings cv. McIntosh; 0.02% active substance, spray
Experimental: Assay B-5: Residual Protective Activity Against Venturia inaegualis on Apples (Scab on Apple) 4 week old apple seedlings cv. McIntosh are treated with the formulated testcompound (0.02% active substance) in a spray chamber. One day after application apple plants are inoculated by spraying a spore suspension (4×10^5 conidia/ml) on the test plants. After an incubation period of 4 days at 21° C. and 95% r. h. the plants are placed for 4 days at 21° C. and 60% r. h. in a greenhouse. After another 4 day incubation period at 21° C. and 95% r. h. the disease incidence is assessed.

[9] = Fusarium culmorum, wheat seeds cv. Orestis in pouch, 0.002% active substance

Row | Structure (SMILES) | B6 activity [1] | B11 activity ([2]; in vivo) | B8 activity [3] | B12 activity [4] | B9 activity [5] | B7 activity [6] | B10 activity [7] | B5 activity [8] | pest or weed control at 0.02 % strength ([7]; 96 h, read-out: B10 activity) | B11 activity [2, 9] | melting point | pest or weed control at 0.02 % strength ([4]; Parastagonospora nodorum, 264 h, read-out: B12 activity)
1 | CCC(COC)Nc1cc(-c2ccnc(Nc3cccc(Cl)c3)n2)ccn1 (stereo not drawn) [Compound 4] | + (the activity observed in the corresponding test system is 70% or more) | + (key: +: the activity observed in the corresponding test system is 70% or more) | + (the activity observed in the corresponding test system is 70% or more) | + (the activity observed in the corresponding test system is 70% or more) | + (the activity observed in the corresponding test system is 70% or more) |  |  |  |  |  |  | 
2 | CCC(CO)Nc1cc(-c2ccnc(Nc3cccc(Cl)c3)n2)ccn1 (stereo not drawn) [Compound 31] |  | + (key: +: the activity observed in the corresponding test system is 70% or more) | + (the activity observed in the corresponding test system is 70% or more) |  |  | + (the activity observed in the corresponding test system is 70% or more) | + (the activity observed in the corresponding test system is 70% or more) | + (the activity observed in the corresponding test system is 70% or more) |  |  |  | 
3 | CC(C)Nc1cc(-c2ccnc(Nc3cccc(Cl)c3)n2)ccn1 [Compound 68] |  |  | + (the activity observed in the corresponding test system is 70% or more) |  |  |  |  |  | > 70% | + (the activity observed in the corresponding test system is 70% or more) | 184 to 185 °C | > 70%
4 | CC(=Nc1cc(-c2ccnc(Nc3cccc(Cl)c3)n2)ccn1)N(C)C [Compound 66] |  | + (key: +: the activity observed in the corresponding test system is 70% or more) | + (the activity observed in the corresponding test system is 70% or more) | + (the activity observed in the corresponding test system is 70% or more) | + (the activity observed in the corresponding test system is 70% or more) | + (the activity observed in the corresponding test system is 70% or more) | + (the activity observed in the corresponding test system is 70% or more) | + (the activity observed in the corresponding test system is 70% or more) |  |  |  | 
5 | CC(=O)Nc1cc(-c2ccnc(Nc3cccc(Cl)c3)n2)ccn1 [Compound 61] |  |  |  |  |  |  |  |  |  | + (the activity observed in the corresponding test system is 70% or more) | 245 to 247 °C | 
